System: human σ1 receptor and human μ-opioid receptor
Test: Human σ1 receptor radioligand assay and human μ-opioid receptor radioligand assay (μ and σ1 dual binding)
Set-up: key to μ and σ1 dual binding: +: Both Ki-μ and Ki-σ1>=500 nM; ++: One K, <500 nM while the other K, is >=500 nM; +++: Both Ki-μ and Ki-σ1<500 nM; ++++: Both Ki-μ and Ki-σ1<100 nM
Details: one class for both Ki: σ1 ([3H](+)-pentazocine, transfected HEK-293 membranes) and μ-opioid ([3H]-DAMGO, transfected CHO-K1 membranes)
Procedure: Human σ1 Receptor Radioligand Assay
To investigate binding properties of σ1 receptor ligands to human σ1 receptor, transfected HEK-293 membranes and [^3H](+)-pentazocine (Perkin Elmer, NET-1056), as the radioligand, were used. The assay was carried out with 7 μg of membrane suspension, 5 nM of [^3H](+)-pentazocine in either absence or presence of either buffer or 10 μM Haloperidol for total and non-specific binding, respectively. Binding buffer contained Tris-HCl 50 mM at pH 8. Plates were incubated at 37° C. for 120 minutes. After the incubation period, the reaction mix was then transferred to MultiScreen HTS, FC plates (Millipore), filtered and plates were washed 3 times with ice-cold 10 mM Tris-HCL (pH7.4). Filters were dried and counted at approximately 40% efficiency in a MicroBeta scintillation counter (Perkin-Elmer) using EcoScint liquid scintillation cocktail
Human μ-Opioid Receptor Radioligand Assay
To investigate binding properties of p-opioid receptor ligands to human p-opioid receptor, transfected CHO-K1 cell membranes and [^3H]-DAMGO (Perkin Elmer, ES-542-C), as the radioligand, were used. The assay was carried out with 20 μg of membrane suspension, 1 nM of [^3H]-DAMGO in either absence or presence of either buffer or 10 μM Naloxone for total and non-specific binding, respectively. Binding buffer contained Tris-HCl 50 mM, MgCl2 5 mM at pH 7.4. Plates were incubated at 27° C. for 60 minutes. After the incubation period, the reaction mix was then transferred to MultiScreen HTS, FC plates (Millipore), filtered and plates were washed 3 times with ice-cold 10 mM Tris-HCL (pH 7.4). Filters were dried and counted at approximately 40% efficiency in a MicroBeta scintillation counter (Perkin-Elmer) using
EcoScint liquid scintillation cocktail.
The following scale as been adopted for representing the binding to the σ1 receptor and the μ-opiod receptor expressed as Ki: • + Both Ki-μ and Ki-σ1>=500 nM • ++ One K, <500 nM while the other K, is >=500 nM • +++ Both Ki-μ and Ki-σ1<500 nM • ++++ Both Ki-μ and Ki-σ1<100 nM

With `COc1cncc(-n2cc(CN3CCN(c4cccc(NS(=O)(=O)C(C)C)n4)CC3)nn2)c1` [Example 56, N-(6-(4-((1-(5-methoxypyridin-3-yl)-1H-1,2,3-triazol-4-yl)methyl)piperazin-1-yl)pyridin-2-yl)propane-2-sulfonamide] as the molecule, how does the “μ and σ1 dual binding” value read?
The value was “++”.

For `CC(C)S(=O)(=O)Nc1cccc(N2CCN(Cc3cn(-c4ccc(F)c(F)c4)nn3)CC2)n1` [Example 49, N-(6-(4-((1-(3,4-difluorophenyl)-1H-1,2,3-triazol-4-yl)methyl)piperazin-1-yl)pyridin-2-yl)propane-2-sulfonamide], which “μ and σ1 dual binding” value is on record?
Its value is “++”.

How did the Ki turn out when `CS(=O)(=O)Nc1cccc(NC2CCN(Cc3cn(-c4ccccc4)nn3)C2)c1` (stereo not drawn) [Example 11, N-(3-(1-((1-phenyl-1H-1,2,3-triazol-4-yl)methyl)pyrrolidin-3-ylamino)phenyl)methanesulfonamide] was run?
The Ki was less than 0.5 µM.

`CCC(=O)Nc1cccc(N2CCN(Cc3cn(-c4ccccc4F)nn3)CC2)n1` [Example 45, N-(6-(4-((1-(2-fluorophenyl)-1H-1,2,3-triazol-4-yl)methyl)piperazin-1-yl)pyridin-2-yl)propionamide] was tested. Which “μ and σ1 dual binding” value did it give?
The value was “++”.

`O=S(=O)(Nc1cccc(N2CCN(Cc3cn(-c4ccc(C(F)(F)F)cn4)nn3)CC2)n1)C1CC1` [Example 67, N-(6-(4-((1-(5-(trifluoromethyl)pyridin-2-yl)-1H-1,2,3-triazol-4-yl)methyl)piperazin-1-yl)pyridin-2-yl)cyclopropanesulfonamide] was tested. Which “μ and σ1 dual binding” value did it give?
Its value is “++”.

How did the “μ and σ1 dual binding” value turn out when `CC(C)(C)NS(=O)(=O)c1cccc(N2CCN(Cc3cn(-c4ccccc4)nn3)CC2)c1` [Example 32, N-tert-butyl-3-(4-((1-phenyl-1H-1,2,3-triazol-4-yl)methyl)piperazin-1-yl)benzenesulfonamide] was run?
Its value is “++”.

Which Ki does the source give for `CS(=O)(=O)Nc1cccc(NC2CN(Cc3cn(-c4ccccc4)nn3)C2)c1` [Example 12, N-(3-(1-((1-phenyl-1H-1,2,3-triazol-4-yl)methyl)azetidin-3-ylamino)phenyl)methanesulfonamide] here?
Its Ki is less than 0.5 µM.

`CN(c1cccc(NS(C)(=O)=O)c1)C1CN(Cc2cn(-c3ccccc3)nn2)C1` [Example 15, N-(3-(methyl(1-((1-phenyl-1H-1,2,3-triazol-4-yl)methyl)azetidin-3-yl)amino)phenyl)methanesulfonamide] was tested. Which Ki did it give?
The Ki was less than 0.5 µM.

How did the Ki turn out when `O=S(=O)(Nc1cccc(N2CCN(Cc3cn(-c4ccccc4)nn3)CC2)c1)C(F)(F)F` [Example 18, 1,1,1-trifluoro-N-(3-(4-((1-phenyl-1H-1,2,3-triazol-4-yl)methyl)piperazin-1-yl)phenyl)methanesulfonamide] was run?
Its Ki is no less than 0.5 µM.

`CS(=O)(=O)Nc1cccc(N2CCN(Cc3cnn(-c4ccccn4)c3)CC2)c1` [Example 38, N-(3-(4-((1-(pyridin-2-yl)-1H-pyrazol-4-yl)methyl)piperazin-1-yl)phenyl)methanesulfonamide] was tested. Which Ki did it give?
Its Ki is less than 0.5 µM.

For `CC(C)S(=O)(=O)Nc1cccc(N2CCN(Cc3cn(-c4cccc(F)c4)nn3)CC2)c1` [Example 27, N-(3-(4-((1-(3-fluorophenyl)-1H-1,2,3-triazol-4-yl)methyl)piperazin-1-yl)phenyl)propane-2-sulfonamide], which Ki is on record?
The Ki was less than 0.1 µM.

`CC(C)S(=O)(=O)Nc1cccc(N2CC3CN(Cc4cn(Cc5ccccn5)nn4)CC3C2)n1` (stereo not drawn) [Example 55, N-(6-(5-((1-(pyridin-2-ylmethyl)-1H-1,2,3-triazol-4-yl)methyl)hexahydropyrrolo[3,4-c]pyrrol-2(1H)-yl)pyridin-2-yl)propane-2-sulfonamide] was tested. Which “μ and σ1 dual binding” value did it give?
The value was “++”.

Which Ki does the source give for `CC(C)S(=O)(=O)Nc1cccc(N2CCN(Cc3cn(-c4ccccc4F)nn3)CC2)c1` [Example 9, N-(3-(4-((1-(2-fluorophenyl)-1H-1,2,3-triazol-4-yl)methyl)piperazin-1-yl)phenyl)propane-2-sulfonamide] here?
The Ki was less than 0.1 µM.

`CC(C)S(=O)(=O)Nc1cccc(N2CCN(Cc3cn(-c4cc(F)ccn4)nn3)CC2)c1` [Example 22, N-(3-(4-((1-(4-fluoropyridin-2-yl)-1H-1,2,3-triazol-4-yl)methyl)piperazin-1-yl)phenyl)propane-2-sulfonamide] was tested. Which “μ and σ1 dual binding” value did it give?
Its value is “++”.

How did the “μ and σ1 dual binding” value turn out when `CS(=O)(=O)Nc1cccc(N2CCN(Cc3cn(Cc4ccccc4)nn3)CC2)c1` [Example 3, N-(3-(4-((1-benzyl-1H-1,2,3-triazol-4-yl)methyl)piperazin-1-yl)phenyl)methanesulfonamide] was run?
Its value is “++”.

With `CC(C)S(=O)(=O)Nc1cccc(N2CCN(Cc3cn(-c4ccc(F)cc4)nn3)CC2)c1` [Example 28, N-(3-(4-((1-(4-fluorophenyl)-1H-1,2,3-triazol-4-yl)methyl)piperazin-1-yl)phenyl)propane-2-sulfonamide] as the molecule, how does the Ki read?
Its Ki is less than 0.5 µM.

For `O=S(=O)(Nc1cccc(N2CCN(Cc3cn(-c4ccccc4)cn3)CC2)n1)C1CC1` [Example 70, N-(6-(4-((1-phenyl-1H-imidazol-4-yl)methyl)piperazin-1-yl)pyridin-2-yl)cyclopropanesulfonamide], which Ki is on record?
Its Ki is less than 0.5 µM.

`CS(=O)(=O)Nc1cccc(N2CCN(Cc3cnn(-c4ccccc4)c3)CC2)c1` [Example 33, N-(3-(4-((1-phenyl-1H-pyrazol-4-yl)methyl)piperazin-1-yl)phenyl)methanesulfonamide] was tested. Which Ki did it give?
The Ki was less than 0.1 µM.

How did the “μ and σ1 dual binding” value turn out when `CS(=O)(=O)Nc1cccc(N2CCN(Cc3cn(-c4ccccc4)nn3)CC2)n1` [Example 41, N-(6-(4-((1-phenyl-1H-1,2,3-triazol-4-yl)methyl)piperazin-1-yl)pyridin-2-yl)methanesulfonamide] was run?
Its value is “++”.

How did the “μ and σ1 dual binding” value turn out when `Oc1cccc(N2CCN(Cc3cn(-c4ccccc4)nn3)CC2)c1` [Example 5, 3-(4-((1-phenyl-1H-1,2,3-triazol-4-yl)methyl)piperazin-1-yl)phenol] was run?
Its value is “++”.

For `CCS(=O)(=O)Nc1cccc(N2CCN(Cc3cn(-c4ccccc4)nn3)CC2)c1` [Example 10, N-(3-(4-((1-phenyl-1H-1,2,3-triazol-4-yl)methyl)piperazin-1-yl)phenyl)ethanesulfonamide], which Ki is on record?
The Ki was less than 0.5 µM.

Which Ki does the source give for `CS(=O)(=O)Nc1cccc(N2CC3CN(Cc4cn(-c5ccccc5)nn4)CC3C2)c1` (stereo not drawn) [Example 13, N-(3-(5-((1-phenyl-1H-1,2,3-triazol-4-yl)methyl)hexahydropyrrolo[3,4-c]pyrrol-2(1H)-yl)phenyl)methanesulfonamide] here?
The Ki was less than 0.5 µM.

`Oc1cccc(N2CCN(Cc3cnn(-c4ccccc4)c3)CC2)c1` [Example 37, 3-(4-((1-phenyl-1H-pyrazol-4-yl)methyl)piperazin-1-yl)phenol] was tested. Which Ki did it give?
The Ki was less than 0.1 µM.

With `CC(C)S(=O)(=O)Nc1cccc(N2CCN(Cc3cn(Cc4ccccc4)cn3)CC2)c1` [Example 40, N-(3-(4-((1-benzyl-1H-imidazol-4-yl)methyl)piperazin-1-yl)phenyl)propane-2-sulfonamide] as the molecule, how does the Ki read?
Its Ki is less than 0.5 µM.

With `CS(=O)(=O)Nc1cccc(N2CCN(Cc3cnn(Cc4ccccc4)c3)CC2)c1` [Example 34, N-(3-(4-((1-benzyl-1H-pyrazol-4-yl)methyl)piperazin-1-yl)phenyl)methanesulfonamide] as the molecule, how does the Ki read?
Its Ki is less than 0.5 µM.

For `CC(C)S(=O)(=O)Nc1cccc(N(C)C2CCN(Cc3cn(-c4ccccc4)nn3)C2)c1` (stereo not drawn) [Example 26, N-(3-(methyl(1-((1-phenyl-1H-1,2,3-triazol-4-yl)methyl)pyrrolidin-3-yl)amino)phenyl)propane-2-sulfonamide], which Ki is on record?
Its Ki is less than 0.1 µM.

With `Oc1cccc(N2CCN(Cc3cn(-c4ccccn4)nn3)CC2)c1` [Example 7, 3-(4-((1-(pyridin-2-yl)-1H-1,2,3-triazol-4-yl)methyl)piperazin-1-yl)phenol] as the molecule, how does the “μ and σ1 dual binding” value read?
The value was “++”.
